The test deals with A. flavus ATCC 64025. In words: Checkerboard MIC assay, FICI. It counts as cell-based, Aspergillus flavus. The settings on record: combination with Compound 1. The source says: The following assay was used to determine the minimum inhibitory concentration (MIC) and fractional inhibitory concentration index (FICI) for combinations of an antifungal agent and a glycopeptide antibacterial agent. This assay and methods for calculating FICI are well known in the art. See, for example, Eliopoulos, E. G. and R. Moellering, Jr. “Antimicrobial Combinations” in Antibiotics in Laboratory Medicine, edited by V. Lorian, 4th Ed., Williams & Wilkins, Baltimore, MD, pp. 330-396 (1996); […] et al., Antimicrobial Agents and Chemotherapy 47(4):1416-1418 (2003); or […] et al., Antimicrobial Agents and Chemotherapy 46(10):3323-3326 (2002). […] The MIC of the glycopeptide antibacterial agent determined from this experiment was used in FIC calculations. […]

For the compound `C[C@@H]1[C@H](O)[C@@H](C)/C=C/C=C/C=C/C=C/C=C/C=C/C=C/[C@H](O[C@@H]2O[C@H](C)[C@@H](O)[C@H](N)[C@@H]2O)C[C@@H]2O[C@](O)(C[C@@H](O)C[C@@H](O)[C@H](O)CC[C@@H](O)C[C@@H](O)CC(=O)O[C@H]1C)C[C@H](O)[C@H]2C(=O)O` [Amphotericin B], the FICI stood at 0.51.
For `C[C@@H]1[C@H](O)[C@@H](C)/C=C/C=C/CC/C=C/C=C/C=C/C=C/C(O[C@H]2O[C@H](C)[C@@H](O)[C@H](N)[C@@H]2O)CC2O[C@](O)(CC(O)C(O)CCC(O)CC(O)CC(O)CC(=O)O[C@H]1C)CC(O)C2C(=O)O` (some centres unmarked) [Nystatin] the value was 0.51.

The values are drawn from US7521418B2, “Use of a polyene macrolide antifungal agent in combination with a glycopeptide antibacterial agent” (Theravance, Inc., priority 2003, dated 2009).
